Laboratory results taken from ChEMBL document CHEMBL3272010, “Antimycotic imidazoles. 3. Synthesis and antimycotic properties of 1-[2-(aryloxyalkyl)-2-phenylethyl]-1H-imidazoles” (1977).
The source made the active and inactive calls. The calls are words filed in the database; no cut-off is given here.

test system: Trichophyton rubrum; test: Antifungal activity against Trichophyton rubrum assessed as lowest dose required to total inhibition of fungal growth; type: functional

Compound	GI
Fc1ccc(OCCC(Cn2ccnc2)c2ccc(Cl)cc2Cl)cc1.O=C(O)C(=O)O (centres undefined)	<1 µg/mL
Clc1ccc(C(CCCOc2ccc(Br)cc2)Cn2ccnc2)c(Cl)c1.O=C(O)C(=O)O (centres undefined)	10 µg/mL
Clc1ccc(C(CCOc2ccccc2)Cn2ccnc2)c(Cl)c1.O=C(O)C(=O)O (centres undefined)	<1 µg/mL
Clc1ccc(OCCCC(Cn2ccnc2)c2ccc(Cl)cc2Cl)cc1.O=C(O)C(=O)O (centres undefined)	<1 µg/mL
Clc1ccc(OCCC(Cn2ccnc2)c2ccc(Cl)cc2Cl)cc1.O=[N+]([O-])O (centres undefined)	<1 µg/mL

test system: Saprolegnia; test: Antifungal activity against Saprolegnia species assessed as lowest dose required to total inhibition of fungal growth; type: functional

Compound	GI
Fc1ccc(OCCC(Cn2ccnc2)c2ccc(Cl)cc2Cl)cc1.O=C(O)C(=O)O (centres undefined)	10 µg/mL
Clc1ccc(C(CCCOc2ccc(Br)cc2)Cn2ccnc2)c(Cl)c1.O=C(O)C(=O)O (centres undefined)	100 µg/mL
Clc1ccc(C(CCOc2ccccc2)Cn2ccnc2)c(Cl)c1.O=C(O)C(=O)O (centres undefined)	100 µg/mL
Clc1ccc(OCCCC(Cn2ccnc2)c2ccc(Cl)cc2Cl)cc1.O=C(O)C(=O)O (centres undefined)	10 µg/mL
Clc1ccc(OCCC(Cn2ccnc2)c2ccc(Cl)cc2Cl)cc1.O=[N+]([O-])O (centres undefined)	10 µg/mL

test system: Aspergillus fumigatus; test: Antifungal activity against Aspergillus fumigatus assessed as lowest dose required to total inhibition of fungal growth; type: functional

Compound	GI
Fc1ccc(OCCC(Cn2ccnc2)c2ccc(Cl)cc2Cl)cc1.O=C(O)C(=O)O (centres undefined)	100 µg/mL
Clc1ccc(C(CCCOc2ccc(Br)cc2)Cn2ccnc2)c(Cl)c1.O=C(O)C(=O)O (centres undefined)	>100 µg/mL
Clc1ccc(C(CCOc2ccccc2)Cn2ccnc2)c(Cl)c1.O=C(O)C(=O)O (centres undefined)	100 µg/mL
Clc1ccc(OCCCC(Cn2ccnc2)c2ccc(Cl)cc2Cl)cc1.O=C(O)C(=O)O (centres undefined)	100 µg/mL
Clc1ccc(OCCC(Cn2ccnc2)c2ccc(Cl)cc2Cl)cc1.O=[N+]([O-])O (centres undefined)	100 µg/mL

test system: Cryptococcus neoformans; test: Antifungal activity against Cryptococcus neoformans assessed as lowest dose required to total inhibition of fungal growth; type: functional

Compound	GI
Fc1ccc(OCCC(Cn2ccnc2)c2ccc(Cl)cc2Cl)cc1.O=C(O)C(=O)O (centres undefined)	<1 µg/mL
Clc1ccc(C(CCCOc2ccc(Br)cc2)Cn2ccnc2)c(Cl)c1.O=C(O)C(=O)O (centres undefined)	10 µg/mL
Clc1ccc(C(CCOc2ccccc2)Cn2ccnc2)c(Cl)c1.O=C(O)C(=O)O (centres undefined)	<1 µg/mL
Clc1ccc(OCCCC(Cn2ccnc2)c2ccc(Cl)cc2Cl)cc1.O=C(O)C(=O)O (centres undefined)	10 µg/mL
Clc1ccc(OCCC(Cn2ccnc2)c2ccc(Cl)cc2Cl)cc1.O=[N+]([O-])O (centres undefined)	<1 µg/mL

test system: Trichophyton mentagrophytes; test: Antifungal activity against Trichophyton mentagrophytes assessed as lowest dose required to total inhibition of fungal growth; type: functional

Compound	GI
Fc1ccc(OCCC(Cn2ccnc2)c2ccc(Cl)cc2Cl)cc1.O=C(O)C(=O)O (centres undefined)	<1 µg/mL
Clc1ccc(C(CCCOc2ccc(Br)cc2)Cn2ccnc2)c(Cl)c1.O=C(O)C(=O)O (centres undefined)	<1 µg/mL
Clc1ccc(C(CCOc2ccccc2)Cn2ccnc2)c(Cl)c1.O=C(O)C(=O)O (centres undefined)	<1 µg/mL
Clc1ccc(OCCCC(Cn2ccnc2)c2ccc(Cl)cc2Cl)cc1.O=C(O)C(=O)O (centres undefined)	<1 µg/mL
Clc1ccc(OCCC(Cn2ccnc2)c2ccc(Cl)cc2Cl)cc1.O=[N+]([O-])O (centres undefined)	<1 µg/mL

test system: Candida tropicalis; test: Antifungal activity against Candida tropicalis assessed as lowest dose required to total inhibition of fungal growth; type: functional

Compound	GI
Fc1ccc(OCCC(Cn2ccnc2)c2ccc(Cl)cc2Cl)cc1.O=C(O)C(=O)O (centres undefined)	>100 µg/mL
Clc1ccc(C(CCCOc2ccc(Br)cc2)Cn2ccnc2)c(Cl)c1.O=C(O)C(=O)O (centres undefined)	>100 µg/mL
Clc1ccc(C(CCOc2ccccc2)Cn2ccnc2)c(Cl)c1.O=C(O)C(=O)O (centres undefined)	100 µg/mL
Clc1ccc(OCCCC(Cn2ccnc2)c2ccc(Cl)cc2Cl)cc1.O=C(O)C(=O)O (centres undefined)	>100 µg/mL
Clc1ccc(OCCC(Cn2ccnc2)c2ccc(Cl)cc2Cl)cc1.O=[N+]([O-])O (centres undefined)	>100 µg/mL

test system: Erysipelothrix rhusiopathiae; test: Antibaterial activity against Erysipelothrix insidiosa assessed as lowest dose required to total inhibition of bacterial growth; type: functional

Compound	GI
Fc1ccc(OCCC(Cn2ccnc2)c2ccc(Cl)cc2Cl)cc1.O=C(O)C(=O)O (centres undefined)	<1 µg/mL
Clc1ccc(C(CCCOc2ccc(Br)cc2)Cn2ccnc2)c(Cl)c1.O=C(O)C(=O)O (centres undefined)	<1 µg/mL
Clc1ccc(C(CCOc2ccccc2)Cn2ccnc2)c(Cl)c1.O=C(O)C(=O)O (centres undefined)	1 µg/mL
Clc1ccc(OCCCC(Cn2ccnc2)c2ccc(Cl)cc2Cl)cc1.O=C(O)C(=O)O (centres undefined)	<1 µg/mL
Clc1ccc(OCCC(Cn2ccnc2)c2ccc(Cl)cc2Cl)cc1.O=[N+]([O-])O (centres undefined)	<1 µg/mL

test system: Candida albicans; test: Antifungal activity against Candida albicans infected in guinea pig at 10 mg/kg, po qd; type: functional, organism-based; parameters: dose 10 mg/kg

Compound	Activity
Fc1ccc(OCCC(Cn2ccnc2)c2ccc(Cl)cc2Cl)cc1.O=C(O)C(=O)O (centres undefined)	Active
Clc1ccc(C(CCCOc2ccc(Br)cc2)Cn2ccnc2)c(Cl)c1.O=C(O)C(=O)O (centres undefined)	inactive
Clc1ccc(C(CCOc2ccccc2)Cn2ccnc2)c(Cl)c1.O=C(O)C(=O)O (centres undefined)	inactive
Clc1ccc(OCCCC(Cn2ccnc2)c2ccc(Cl)cc2Cl)cc1.O=C(O)C(=O)O (centres undefined)	inactive

test system: Sporothrix schenckii; test: Antifungal activity against Sporothrix schenckii assessed as lowest dose required to total inhibition of fungal growth; type: functional

Compound	GI
Fc1ccc(OCCC(Cn2ccnc2)c2ccc(Cl)cc2Cl)cc1.O=C(O)C(=O)O (centres undefined)	10 µg/mL
Clc1ccc(C(CCCOc2ccc(Br)cc2)Cn2ccnc2)c(Cl)c1.O=C(O)C(=O)O (centres undefined)	100 µg/mL
Clc1ccc(C(CCOc2ccccc2)Cn2ccnc2)c(Cl)c1.O=C(O)C(=O)O (centres undefined)	10 µg/mL
Clc1ccc(OCCCC(Cn2ccnc2)c2ccc(Cl)cc2Cl)cc1.O=C(O)C(=O)O (centres undefined)	<1 µg/mL
Clc1ccc(OCCC(Cn2ccnc2)c2ccc(Cl)cc2Cl)cc1.O=[N+]([O-])O (centres undefined)	10 µg/mL

test system: Streptococcus pyogenes; test: Antibaterial activity against Streptococcus pyogenes assessed as lowest dose required to total inhibition of bacterial growth; type: functional

Compound	GI
Fc1ccc(OCCC(Cn2ccnc2)c2ccc(Cl)cc2Cl)cc1.O=C(O)C(=O)O (centres undefined)	1 µg/mL
Clc1ccc(C(CCCOc2ccc(Br)cc2)Cn2ccnc2)c(Cl)c1.O=C(O)C(=O)O (centres undefined)	<1 µg/mL
Clc1ccc(C(CCOc2ccccc2)Cn2ccnc2)c(Cl)c1.O=C(O)C(=O)O (centres undefined)	1 µg/mL
Clc1ccc(OCCCC(Cn2ccnc2)c2ccc(Cl)cc2Cl)cc1.O=C(O)C(=O)O (centres undefined)	<1 µg/mL
Clc1ccc(OCCC(Cn2ccnc2)c2ccc(Cl)cc2Cl)cc1.O=[N+]([O-])O (centres undefined)	<1 µg/mL

test system: Microsporum canis; test: Antifungal activity against Microsporum canis assessed as lowest dose required to total inhibition of fungal growth; type: functional

Compound	GI
Fc1ccc(OCCC(Cn2ccnc2)c2ccc(Cl)cc2Cl)cc1.O=C(O)C(=O)O (centres undefined)	10 µg/mL
Clc1ccc(C(CCCOc2ccc(Br)cc2)Cn2ccnc2)c(Cl)c1.O=C(O)C(=O)O (centres undefined)	100 µg/mL
Clc1ccc(C(CCOc2ccccc2)Cn2ccnc2)c(Cl)c1.O=C(O)C(=O)O (centres undefined)	10 µg/mL
Clc1ccc(OCCCC(Cn2ccnc2)c2ccc(Cl)cc2Cl)cc1.O=C(O)C(=O)O (centres undefined)	10 µg/mL
Clc1ccc(OCCC(Cn2ccnc2)c2ccc(Cl)cc2Cl)cc1.O=[N+]([O-])O (centres undefined)	10 µg/mL

test system: Mucor; test: Antifungal activity against Mucor species assessed as lowest dose required to total inhibition of fungal growth; type: functional

Compound	GI
Fc1ccc(OCCC(Cn2ccnc2)c2ccc(Cl)cc2Cl)cc1.O=C(O)C(=O)O (centres undefined)	100 µg/mL
Clc1ccc(C(CCCOc2ccc(Br)cc2)Cn2ccnc2)c(Cl)c1.O=C(O)C(=O)O (centres undefined)	>100 µg/mL
Clc1ccc(C(CCOc2ccccc2)Cn2ccnc2)c(Cl)c1.O=C(O)C(=O)O (centres undefined)	100 µg/mL
Clc1ccc(OCCCC(Cn2ccnc2)c2ccc(Cl)cc2Cl)cc1.O=C(O)C(=O)O (centres undefined)	>100 µg/mL
Clc1ccc(OCCC(Cn2ccnc2)c2ccc(Cl)cc2Cl)cc1.O=[N+]([O-])O (centres undefined)	10 µg/mL

test system: Candida albicans; test: Antifungal activity against Candida albicans assessed as lowest dose required to total inhibition of fungal growth; type: functional

Compound	GI
Fc1ccc(OCCC(Cn2ccnc2)c2ccc(Cl)cc2Cl)cc1.O=C(O)C(=O)O (centres undefined)	10 µg/mL
Clc1ccc(C(CCCOc2ccc(Br)cc2)Cn2ccnc2)c(Cl)c1.O=C(O)C(=O)O (centres undefined)	>100 µg/mL
Clc1ccc(C(CCOc2ccccc2)Cn2ccnc2)c(Cl)c1.O=C(O)C(=O)O (centres undefined)	10 µg/mL
Clc1ccc(OCCCC(Cn2ccnc2)c2ccc(Cl)cc2Cl)cc1.O=C(O)C(=O)O (centres undefined)	>100 µg/mL
Clc1ccc(OCCC(Cn2ccnc2)c2ccc(Cl)cc2Cl)cc1.O=[N+]([O-])O (centres undefined)	10 µg/mL

test system: Staphylococcus haemolyticus; test: Antibaterial activity against Staphylococcus haemolyticus assessed as lowest dose required to total inhibition of bacterial growth; type: functional

Compound	GI
Fc1ccc(OCCC(Cn2ccnc2)c2ccc(Cl)cc2Cl)cc1.O=C(O)C(=O)O (centres undefined)	10 µg/mL
Clc1ccc(C(CCCOc2ccc(Br)cc2)Cn2ccnc2)c(Cl)c1.O=C(O)C(=O)O (centres undefined)	10 µg/mL
Clc1ccc(C(CCOc2ccccc2)Cn2ccnc2)c(Cl)c1.O=C(O)C(=O)O (centres undefined)	10 µg/mL
Clc1ccc(OCCCC(Cn2ccnc2)c2ccc(Cl)cc2Cl)cc1.O=C(O)C(=O)O (centres undefined)	1 µg/mL
Clc1ccc(OCCC(Cn2ccnc2)c2ccc(Cl)cc2Cl)cc1.O=[N+]([O-])O (centres undefined)	1 µg/mL

test system: Phialophora verrucosa; test: Antifungal activity against Phialophora verrucosa assessed as lowest dose required to total inhibition of fungal growth; type: functional

Compound	GI
Fc1ccc(OCCC(Cn2ccnc2)c2ccc(Cl)cc2Cl)cc1.O=C(O)C(=O)O (centres undefined)	100 µg/mL
Clc1ccc(C(CCCOc2ccc(Br)cc2)Cn2ccnc2)c(Cl)c1.O=C(O)C(=O)O (centres undefined)	100 µg/mL
Clc1ccc(C(CCOc2ccccc2)Cn2ccnc2)c(Cl)c1.O=C(O)C(=O)O (centres undefined)	100 µg/mL
Clc1ccc(OCCCC(Cn2ccnc2)c2ccc(Cl)cc2Cl)cc1.O=C(O)C(=O)O (centres undefined)	100 µg/mL
Clc1ccc(OCCC(Cn2ccnc2)c2ccc(Cl)cc2Cl)cc1.O=[N+]([O-])O (centres undefined)	100 µg/mL
